Values after ≈ are worked out from the molar mass of the structure shown. Where two headings read alike, the source gives them in different places.
Key:
in vitro = assay type: cell-based
Method: (§1) African green monkey kidney cells (Vero cells) were grown in Dulbecco's modified Eagle's minimal essential medium (DMEM, Avantor, Llinars del Vallès, Barcelona) supplemented with 10% fetal calf serum (Sigma, Madrid, Spain) and 1% penicillin/streptomycin (Fisher Scientific, Madrid, Spain) at 37°C under a humidified atmosphere of 5% CO2/95% air.
(§2) Cells seeded in 96-well flat-bottom microplates with 100 μL medium per well (initial densities 10^4 cells per well) were exposed for 48 h to serial dilutions of the test compounds in DMSO (<1% final concentration). Cell viability was analyzed by the MTT colorimetric assay method, and the purple-colored formazan precipitate was dissolved with 100 μL of DMSO ([30]).
(§3) IC50 anti-trichomonal activity and CC50 cytotoxic activity were determined from the dose-response experiment, employing a linear regression analysis (% cell viability on log dose).

[1] = system: Trichomonas gallinae trophozoites; experiment: Anti-trichomonal (AT) activity in vitro, MTT reduction assay on trophozoites; assay type: cell-based; details: for IC50: Trichomonas gallinae, read-out: T. gallinae (IC50), concentration needed to produce 50% trophozoite mortality; for AT activity against T. gallinae (in words): no concentration stated
Method: The AT activity assay was performed using round bottom microwell plates in quadruplicate. Each well had 150 μl of T. gallinae trophozoites in Trypticase-Yeast Extract-Maltose medium (TYM) with 10% fetal calf serum (Sigma, Madrid, Spain) at 500.000 trophozoites/ml ([29]). EOs and pure compounds were solved in DMSO (Sigma, Madrid, Spain) (<1% final concentration). […] Trophozoite viability was analyzed using the modified MTT colorimetric assay method as previously described in literature ([29]). Briefly, after incubating the plate for 24 h at 37°C with the EOs and compounds to be tested, the plates were centrifuged at 750 x g, the medium was eliminated and 100 μl of a solution of MTT (Sigma, Madrid, Spain) (1.25 μg/ml) and PMS (Sigma, Madrid, Spain) (0.1 μg/ml) in PBS (Sigma, Madrid, Spain) was added to each well. The plate was incubated for 45 min in dark conditions to allow the reduction of MTT to formazan salts. Prior to reading, 100 μl of DMSO was added to each well to dissolve the formazan crystals. The plate was read in a spectrophotometer using a wavelength of 570 nm.
The percentage of AT activity was calculated as growth inhibition using the following formula:
% AT = 100-[(Ap-Ab)÷(Ac-Ab)]×100
Where Ap is the absorbance of the tested product, Ab the absorbance of the blank and Ac the absorbance of the control wells (culture without treatment).
Pure compounds were assayed using the same method described above, although the concentrations tested were 100, 75, 50, 25, 10, and 1 μg/ml. Metronidazole (Acros Organics, Madrid Spain) was used as a reference drug for antitrichomonal activity.
IC50 (μg/ml) reflects the dose needed to produce 50% mortality of T. gallinae trophozoites.
as §3

Vero cells = experiment: in vitro; assay type: cell-based; details: pure compounds; for Vero cells (CC50), concentration needed to produce 50% Vero cell mortality: 48 h exposure, interval in parentheses; for Cytotoxic activity on Vero cells (in words): up to 100 μg/ml, 48 h
Method: as §1, §2, §3

[2] = cited from earlier work
[3] = pure compounds, 24 h incubation, interval in parentheses
[4] = pure compounds, 48 h exposure, interval in parentheses, read-out: Vero cells (CC50), concentration needed to produce 50% Vero cell mortality
[5] = SI = CC50 (Vero cells)/IC50 (T. gallinae)

Row | Molecule | CC50 at 48 h (in vitro; African green monkey) [µg/mL] | IC50 [1, 3] [µg/mL] | CC50 (in vitro; [4]) [µg/mL] | other results
1 | CC12CCC(CC1)C(C)(C)O2 [1,8 cineole] | > 100 | > 100 | – | –
2 | CC1=CCC(O)(C(C)C)CC1 (stereo not shown) [4-terpinenol] | – | 41.5 (≈ 269 µM) | > 100 | SI, Selectivity index [1, 5]: > 2.4
3 | CC1(C)C2CCC1(C)C(O)C2 (stereo not shown) [Borneol] | > 100 | > 100 | – | –
4 | C=C1C2CCC(C2)C1(C)C (stereo not shown) [Camphene] | – | 24 (≈ 176 µM) | 74.8 (≈ 549 µM) | –
5 | CC12CCC(CC1=O)C2(C)C (stereo not shown) [Camphor] | > 100 | > 100 | – | –
6 | Cc1ccc(C(C)C)cc1O [Carvacrol] | – | > 100 | > 100 | –
7 | C=C1CC[C@H]2O[C@]2(C)CC[C@@H]2[C@@H]1CC2(C)C [Caryophyllene oxide] | – | – | – | Vero cells (CC50), concentration needed to produce 50% Vero cell mortality (Vero cells): >100 µg/mL; AT activity against T. gallinae (in words) ([1]; pure compounds): slight activity; T. gallinae (IC50), concentration needed to produce 50% trophozoite mortality [1, 3]: ≈100 μg/ml
8 | CC1(C)C(=O)[C@@]2(C)CCC1C2 [D-fenchone] | – | – | – | Vero cells (CC50), concentration needed to produce 50% Vero cell mortality (Vero cells): >100 µg/mL; T. gallinae (IC50), concentration needed to produce 50% trophozoite mortality [1, 3]: 61.9 (54.3–70.6) μg/ml
9 | C=CC(C)(O)CCC=C(C)C (stereo not shown) [Linalool] | – | > 100 | > 100 | AT activity against T. gallinae (in words) ([1]; pure compounds): not an active AT compound
10 | C=CC(C)(CCC=C(C)C)OC(C)=O (stereo not shown) [Linalyl acetate] | – | – | – | CC50 (in vitro): > 100 µg/mL; SI, Selectivity index [1]: > 3.1; IC50 ([1]; 24 h): 32.2 µg/mL
11 | Cc1ncc([N+](=O)[O-])n1CCO [Metronidazole, reference compound] | > 100 | 1 (≈ 5.84 µM) | – | –
12 | Cc1ccc(C(C)C)c(O)c1 [Thymol] | > 100 | 38.4 (≈ 256 µM) | – | –
13 | Cc1ccc(C(C)C)cc1 [p-cymene] | – | 59.7 (≈ 445 µM) | > 100 | SI, Selectivity index [1, 5]: > 1.7
14 | CC1=CCC2CC1C2(C)C (stereo not drawn) [α-pinene] | 88.9 (≈ 653 µM) | 44.2 (≈ 324 µM) | – | Cytotoxic activity on Vero cells (in words) (Vero cells): slightly toxic
15 | CC1=CC[C@@H](C(C)(C)O)CC1 [α-terpineol] | – | > 100 | > 100 | –
16 | C=C1CC/C=C(\C)CC[C@@H]2[C@@H]1CC2(C)C [β-caryophyllene] | – | 86.1 (≈ 421 µM) | 60.8 (≈ 298 µM) | Cytotoxic activity on Vero cells (in words) (Vero cells): slightly toxic; AT activity against T. gallinae (in words) ([1]; pure compounds): slight activity
17 | C=C1CCC2CC1C2(C)C (stereo not drawn) [β-pinene] | – | 29.6 (≈ 217 µM) | 88.2 (≈ 647 µM) | –
18 | CC1=CCC(C(C)C)=CC1 [γ-terpinene] | – | 43.8 (≈ 321 µM) | – | CC50 at 48 h (in vitro; [4]): > 100 µg/mL; SI, Selectivity index [1, 5]: > 2.3
19 | α and β thujone | – | – | – | Neurotoxicity (in words) [2]: potent neurotoxic substances; Cytotoxic activity on Vero cells (in words) (Vero cells): did not show cytotoxic effect; Vero cells (CC50), concentration needed to produce 50% Vero cell mortality (Vero cells): >100 µg/mL; T. gallinae (IC50), concentration needed to produce 50% trophozoite mortality [1, 3]: 17.3 (11.3–26.3) μg/ml
